Our source for the TGI and GI50 values is PubChem BioAssay (NCI).

Some test systems named below: M19-MEL melanoma; XF 498 CNS; P388/ADR leukemia; HL-60(TB) leukemia; CCRF-CEM leukemia; P388 leukemia; SN12K1 renal; MCF7 breast; HOP-18 NSCLC; RPMI-8226 leukemia; DLD-1 colon; BT-549 breast; SR leukemia; HS 578T breast; LXFL 529 NSCLC; RXF-631 renal.
What all share (test): NCI tumour cell line growth inhibition, 48 h

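Results reflect a 48-hour exposure of cells in 96-well plates to compound at five concentrations. Abbreviation: GI50, concentration required for 50% inhibition of growth. At the TGI there is no net growth.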 Bounds are passed on as bounds.

In the case of `CC(C)[C@](O)(C(=O)OCC1CC[N+]2([O-])CC[C@@H](O)C12)[C@H](C)O` (some centres not stated), the TGI with M19-MEL melanoma, with XF 498 CNS, in the assay with P388/ADR leukemia, with HL-60(TB) leukemia, in the assay on CCRF-CEM leukemia and with P388 leukemia was greater than 375 µM throughout. In addition, the TGI in the assay with SN12K1 renal, in the assay with MCF7 breast, in the assay on HOP-18 NSCLC, in the assay with RPMI-8226 leukemia and in the assay on DLD-1 colon was greater than 375 µM in each case.

Turning to `Cc1ccc(S(=O)(=O)OC2C(C3COC(C)(C)O3)OC3OC(C)(C)OC32)cc1` (configuration not stated), the TGI with BT-549 breast, in the assay with CCRF-CEM leukemia, in the assay on SR leukemia and with HS 578T breast was greater than 100 µM each time.

`Cc1ccc(-c2csc(=Nc3c(C)n(C)n(-c4ccccc4)c3=O)n2CCO)cc1`: the TGI in the assay on BT-549 breast, in the assay on HL-60(TB) leukemia, with CCRF-CEM leukemia, in the assay with SR leukemia, with MCF7 breast and in the assay with RPMI-8226 leukemia was greater than 100 µM in each case.

For the compound `CCCCN1C(=O)NC(Cc2ccccc2)C1=O` (configuration not stated), the TGI in the assay with M19-MEL melanoma, with XF 498 CNS, in the assay on LXFL 529 NSCLC, in the assay on SR leukemia, in the assay on HOP-18 NSCLC and with DLD-1 colon was greater than 100 µM throughout.

On to `O=[n+]1c2ccccc2n([O-])c2cc(Br)ccc21`, for which the TGI with HL-60(TB) leukemia was 7.56 µM; in the assay with CCRF-CEM leukemia, greater than 100 µM; with SR leukemia, 5.21 µM; with MCF7 breast, 53 µM; in the assay with HS 578T breast it was greater than 100 µM; in the assay with RPMI-8226 leukemia, 61.4 µM.

As for `CC#C[I+]c1ccccc1`, the TGI was greater than 100 µM with RXF-631 renal; 45 µM with M19-MEL melanoma; 33.5 µM with XF 498 CNS; 33.8 µM in the assay on HL-60(TB) leukemia; 18.7 µM in the assay on CCRF-CEM leukemia; 27.1 µM in the assay with LXFL 529 NSCLC. In addition, the TGI with SR leukemia amounted to 36.5 µM; in the assay with HOP-18 NSCLC, 34.4 µM; in the assay with DLD-1 colon, 30.2 µM.

Turning to `COc1ccc(N2C(=O)C3c4[nH]c5cccc(C)c5c4C4CCC(C(C)(C)C)CC4C3C2=O)cc1` (configuration not stated), the TGI with HL-60(TB) leukemia, with SR leukemia, in the assay on MCF7 breast, with HS 578T breast and in the assay on RPMI-8226 leukemia was greater than 10 µM each time.

On to `COc1cc2c3c(n(CCCNCCCNCCCn4c5c(c6ccccc6c4=O)C(=O)c4ccccc4-5)c(=O)c2cc1OC)-c1cc2c(cc1C3=O)OCO2`, for which, in the assay on BT-549 breast, the GI50 is less than 0.01 µM and the TGI came out at 1.1 µM.

With `CC(=O)Oc1ccccc1C(=O)O`, the TGI in the assay on BT-549 breast, with HL-60(TB) leukemia, in the assay on CCRF-CEM leukemia, with SR leukemia, in the assay with MCF7 breast and in the assay on RPMI-8226 leukemia was greater than 100 µM each time.

In the case of `Clc1c(Cl)c2c(Cl)c(Cl)c1C[P+](c1ccccc1)(c1ccccc1)CC[P+](c1ccccc1)(c1ccccc1)Cc1c(Cl)c(Cl)c(c(Cl)c1Cl)C[P+](c1ccccc1)(c1ccccc1)CC[P+](c1ccccc1)(c1ccccc1)C2`, the TGI with RXF-631 renal was 23.7 µM; in the assay with M19-MEL melanoma, 9.91 µM; in the assay with CCRF-CEM leukemia, 9.63 µM; in the assay on LXFL 529 NSCLC it was 8.12 µM; with HOP-18 NSCLC, 20.6 µM; in the assay on RPMI-8226 leukemia, 4.78 µM. This compound displayed a TGI with DLD-1 colon of 13.2 µM.

For the compound `Cn1c(-c2ccc(/C=N\N3CCN(/N=C/c4ccc(-c5c[n+]6ccsc6n5C)cc4)CC3)cc2)c[n+]2ccsc12`, the TGI in the assay with BT-549 breast was 90.3 µM; with HL-60(TB) leukemia, 48.3 µM; in the assay on CCRF-CEM leukemia, greater than 100 µM; with SR leukemia it was greater than 100 µM; in the assay on MCF7 breast, greater than 100 µM; in the assay on HS 578T breast, 80.8 µM. Besides, the TGI in the assay on RPMI-8226 leukemia is 89.4 µM.

Consider `CCCCCCCCCCCCCCCCOCC(COP(=O)([O-])OCC[N+](C)(C)C)OCCCCCCCCCCCCCCCC` (configuration not stated), for which the TGI in the assay with M19-MEL melanoma, in the assay with XF 498 CNS, in the assay with P388/ADR leukemia, with HL-60(TB) leukemia, in the assay on CCRF-CEM leukemia and with P388 leukemia was greater than 100 µM in each case. Further, the TGI in the assay on SN12K1 renal, with HOP-18 NSCLC, with RPMI-8226 leukemia and in the assay on DLD-1 colon was greater than 100 µM in each case.

As for `CCO[C@]12C[C@H](OC)[C@@]3(O)CC(C1[C@H]3O)C13C4C2[C@H](OC)C1[C@](COC)(CN4CC)[C@H](O)C[C@@H]3OC` (some centres not stated), the TGI with M19-MEL melanoma, in the assay with HL-60(TB) leukemia, in the assay on CCRF-CEM leukemia, in the assay on LXFL 529 NSCLC, in the assay on SR leukemia and in the assay with RPMI-8226 leukemia was greater than 100 µM each time. Besides, the TGI with DLD-1 colon was greater than 100 µM.

Turning to `OCCN(CCO)c1ccc2c(c1)Cc1ccccc1-2`, the TGI with HL-60(TB) leukemia is greater than 100 µM; with CCRF-CEM leukemia, greater than 100 µM; with SR leukemia, greater than 100 µM; in the assay with MCF7 breast, 60.5 µM; with HS 578T breast it was greater than 100 µM; in the assay with RPMI-8226 leukemia, greater than 100 µM.
